From the NIST ThermoML archive (doi:10.1021/je7004374)

Key:
[1] = refractive index (Na D-line) (dimensionless); conditions: 298.15 K; 101.33 kPa; Liquid; Standard Abbe refractometry
[2] = Liquid

CC(O)CO (centres undefined) [1,2-propanediol]
Conditions	refractive index
[1]	1.431

[2]
Conditions	mass density [kg/m3]
283.16 K, 101.33 kPa	1043.43
288.15 K, 101.33 kPa	1039.84
293.15 K, 100 kPa	1036.22
293.15 K, 10000 kPa	1040.95
293.15 K, 20000 kPa	1045.52
293.15 K, 30000 kPa	1049.89
293.15 K, 40000 kPa	1054.08
293.15 K, 50000 kPa	1058.13
293.15 K, 60000 kPa	1062.03
293.15 K, 70000 kPa	1065.8
293.15 K, 80000 kPa	1069.46
293.15 K, 90000 kPa	1073.01
293.15 K, 100000 kPa	1076.45
293.16 K, 101.33 kPa	1036.21
298.15 K, 100 kPa	1032.55
298.15 K, 10000 kPa	1037.38
298.15 K, 20000 kPa	1042.03
298.15 K, 30000 kPa	1046.08
298.15 K, 40000 kPa	1050.75
298.15 K, 50000 kPa	1054.86
298.15 K, 60000 kPa	1058.82
298.15 K, 70000 kPa	1062.66
298.15 K, 80000 kPa	1066.37
298.15 K, 90000 kPa	1069.96
298.15 K, 100000 kPa	1073.46
298.16 K, 101.33 kPa	1032.54
303.15 K, 100 kPa	1028.84
303.15 K, 10000 kPa	1033.77
303.15 K, 20000 kPa	1038.51
303.15 K, 30000 kPa	1043.04
303.15 K, 40000 kPa	1047.38
303.15 K, 50000 kPa	1051.56
303.15 K, 60000 kPa	1055.59
303.15 K, 70000 kPa	1059.48
303.15 K, 80000 kPa	1063.24
303.15 K, 90000 kPa	1066.89
303.15 K, 100000 kPa	1070.44
303.16 K, 101.33 kPa	1028.83
308.15 K, 100 kPa	1025.1
308.15 K, 101.33 kPa	1025.09
308.15 K, 10000 kPa	1030.12
308.15 K, 20000 kPa	1034.95
308.15 K, 30000 kPa	1039.56
308.15 K, 40000 kPa	1043.98
308.15 K, 50000 kPa	1048.23
308.15 K, 60000 kPa	1052.32
308.15 K, 70000 kPa	1056.27
308.15 K, 80000 kPa	1060.1
308.15 K, 90000 kPa	1063.8
308.15 K, 100000 kPa	1067.39
313.15 K, 100 kPa	1021.31
313.15 K, 101.33 kPa	1021.3
313.15 K, 10000 kPa	1026.44
313.15 K, 20000 kPa	1031.36
313.15 K, 30000 kPa	1036.06
313.15 K, 40000 kPa	1040.55
313.15 K, 50000 kPa	1044.87
313.15 K, 60000 kPa	1049.03
313.15 K, 70000 kPa	1053.04
313.15 K, 80000 kPa	1056.92
313.15 K, 90000 kPa	1060.68
313.15 K, 100000 kPa	1064.32
318.15 K, 100 kPa	1017.48
318.16 K, 101.33 kPa	1017.48
323.15 K, 101.33 kPa	1013.61
328.16 K, 101.33 kPa	1009.71
333.15 K, 101.33 kPa	1005.76
338.16 K, 101.33 kPa	1001.77
343.15 K, 101.33 kPa	997.745
348.15 K, 101.33 kPa	993.675
353.15 K, 101.33 kPa	989.56
358.15 K, 101.33 kPa	985.405
363.15 K, 101.33 kPa	981.219

[2]
Conditions	speed of sound [m/s]
292.87 K, 45590 kPa, Sing-around technique in a fixed-path interferometer	1674.4
292.87 K, 60790 kPa, Sing-around technique in a fixed-path interferometer	1717.8
292.87 K, 101320 kPa, Sing-around technique in a fixed-path interferometer	1821.9
292.88 K, 15200 kPa, Sing-around technique in a fixed-path interferometer	1578.7
292.88 K, 30390 kPa, Sing-around technique in a fixed-path interferometer	1628.5
292.88 K, 75990 kPa, Sing-around technique in a fixed-path interferometer	1758.5
292.88 K, 91180 kPa, Sing-around technique in a fixed-path interferometer	1797.3
292.92 K, 100 kPa, Sing-around technique in a fixed-path interferometer	1523.1
293.15 K, 101.33 kPa, Pulse-echo method	1522.4
298.15 K, 101.33 kPa, Pulse-echo method	1508.4
298.15 K, 45590 kPa, Sing-around technique in a fixed-path interferometer	1661.6
298.15 K, 60790 kPa, Sing-around technique in a fixed-path interferometer	1705.2
298.15 K, 75990 kPa, Sing-around technique in a fixed-path interferometer	1746.5
298.16 K, 15200 kPa, Sing-around technique in a fixed-path interferometer	1564.2
298.16 K, 30390 kPa, Sing-around technique in a fixed-path interferometer	1615.1
298.16 K, 91180 kPa, Sing-around technique in a fixed-path interferometer	1785.6
298.16 K, 101320 kPa, Sing-around technique in a fixed-path interferometer	1810.5
298.2 K, 100 kPa, Sing-around technique in a fixed-path interferometer	1508.3
303.13 K, 60790 kPa, Sing-around technique in a fixed-path interferometer	1693.5
303.13 K, 101320 kPa, Sing-around technique in a fixed-path interferometer	1799.9
303.14 K, 15200 kPa, Sing-around technique in a fixed-path interferometer	1551
303.14 K, 30390 kPa, Sing-around technique in a fixed-path interferometer	1602.4
303.14 K, 45590 kPa, Sing-around technique in a fixed-path interferometer	1649.6
303.14 K, 75990 kPa, Sing-around technique in a fixed-path interferometer	1735.4
303.14 K, 91180 kPa, Sing-around technique in a fixed-path interferometer	1774.8
303.15 K, 101.33 kPa, Pulse-echo method	1494.3
303.18 K, 100 kPa, Sing-around technique in a fixed-path interferometer	1494.2
308.12 K, 60790 kPa, Sing-around technique in a fixed-path interferometer	1682
308.12 K, 75990 kPa, Sing-around technique in a fixed-path interferometer	1724.1
308.12 K, 91180 kPa, Sing-around technique in a fixed-path interferometer	1764
308.12 K, 101320 kPa, Sing-around technique in a fixed-path interferometer	1789.3
308.13 K, 15200 kPa, Sing-around technique in a fixed-path interferometer	1537.7
308.13 K, 30390 kPa, Sing-around technique in a fixed-path interferometer	1589.5
308.13 K, 45590 kPa, Sing-around technique in a fixed-path interferometer	1637.6
308.15 K, 101.33 kPa, Pulse-echo method	1480.2
308.17 K, 100 kPa, Sing-around technique in a fixed-path interferometer	1480.1
313.15 K, 101.33 kPa, Pulse-echo method	1466
313.31 K, 15200 kPa, Sing-around technique in a fixed-path interferometer	1524.2
313.31 K, 30390 kPa, Sing-around technique in a fixed-path interferometer	1576.4
313.31 K, 45590 kPa, Sing-around technique in a fixed-path interferometer	1625
313.31 K, 60790 kPa, Sing-around technique in a fixed-path interferometer	1669.9
313.31 K, 75990 kPa, Sing-around technique in a fixed-path interferometer	1712.6
313.31 K, 91180 kPa, Sing-around technique in a fixed-path interferometer	1752.8
313.31 K, 101320 kPa, Sing-around technique in a fixed-path interferometer	1778.5
313.35 K, 100 kPa, Sing-around technique in a fixed-path interferometer	1465.4
